A short description of data set [1]: xn = mol fraction of the nth substance listed. Particulars: 303.15 K, 101 kPa, Liquid, x1 = 0.5; for viscosity: Capillary tube (Ostwald / Ubbelohde) method; for speed of sound: Frequency=2 MHz; for mass density: Pycnometric method.
The conditions of data set [2]: 303.15 K, 101.33 kPa, Liquid; for viscosity: Capillary tube (Ostwald / Ubbelohde) method; for speed of sound: Linear variable-path acoustic interferometer; for mass density: Pycnometric method.

Numbers after ± are expanded uncertainties.

A word on the viscosity: it is the resistance of a fluid to flow. Usually speed of sound stands for the propagation velocity of pressure waves in the medium. Usually mass density stands for the mass of a sample divided by its volume. With `COC(=O)c1ccccc1` [methyl benzoate] + CCCO, in data set [1], the viscosity was found to be 1.634 ± 0.16 mPa·s and the mass density is on record as 944.5 ± 4 kg/m3. Also, the speed of sound in data set [1] (Linear variable-path acoustic interferometer) amounted to 1296.6 ± 1.9 m/s.

As to `CCOC(=O)c1ccccc1` [ethyl benzoate], in data set [2], the viscosity amounted to 1.749 ± 0.17 mPa·s, the speed of sound is recorded as 1345.4 ± 2 m/s and the mass density is listed as 1042 ± 4 kg/m3.

For the molecule `CCOC(=O)c1ccccc1` [ethyl benzoate] + CCCO, in data set [1], the viscosity is listed as 1.679 ± 0.17 mPa·s and the mass density came out at 918.5 ± 4 kg/m3. The speed of sound in data set [1] (variable-path interferometer) is on record as 1261.4 ± 1.9 m/s.

Regarding `CCCCCO` [pentan-1-ol], in data set [2], the viscosity was 3.012 ± 0.3 mPa·s, the speed of sound is reported as 1252.4 ± 1.9 m/s and the mass density came to 810 ± 4 kg/m3.

Consider `CCCO` [propan-1-ol], for which, in data set [2], the viscosity is 1.61 ± 0.16 mPa·s, the speed of sound came to 1189.2 ± 1.9 m/s and the mass density is recorded as 798 ± 4 kg/m3.

For `COC(=O)c1ccccc1` [methyl benzoate], in data set [2], the viscosity came to 1.67 ± 0.17 mPa·s, the speed of sound was 1399.4 ± 2 m/s and the mass density amounted to 1077 ± 4 kg/m3.

In the case of `CCCCO` [butan-1-ol], in data set [2], the viscosity was 2.054 ± 0.21 mPa·s, the speed of sound stood at 1228.4 ± 1.9 m/s and the mass density was 804 ± 4 kg/m3.

(Values after the NIST ThermoML archive (doi:10.1016/j.jct.2013.09.005).)
